# Reference: patent publication US8470820B2, “Nitrogen-containing heteroaryl derivatives” (Hoffman-La Roche Inc., priority 2010, dated 2013)
# Biological target: human PDE10A (Homo sapiens (Human), UniProt Q9Y233)
# Experiment: human PDE10A full length Scintillation Proximity Assay (SPA)
# Type: biochemical
# Conditions: 50 nM cGMP and 50 nM [3H]-cGMP, 20 minutes at room temperature, read-out: PDE10A inhibition IC50
# Method: The following test was carried out in order to determine the activity of the compounds of the present invention. PDE10 activity of the compounds of the present invention was determined using a Scintillation Proximity Assay (SPA)-based method similar to the one previously described (Fawcett, L. et al., Proc Natl Acad Sci USA (2000) 97(7):3702-3707).
# The human PDE10A full length assay was performed in 96-well micro titer plates. The reaction mixture of 50 μl contained 20 mM HEPES pH=7.5/10 mM MgCl2/0.05 mg/ml BSA (Sigma cat. # A-7906), 50 nM cGMP (Sigma, cat. # G6129) and 50 nM [^3H]-cGMP (GE Healthcare, cat. # TRK392 S.A. 13.2Ci/mmol), 3.75 ng/well PDE10A enzyme (Enzo Life Science, Lausen, Switzerland cat # SE-534) with or without a specific test compound. A range of concentrations of the potential inhibitor was used to generate data for calculating the concentration of inhibitor resulting in 50% of the effect (e.g. IC50, the concentration of the competitor inhibiting PDE10A activity by 50%). Non-specific activity was tested without the enzyme. The reaction was initiated by the addition of the substrate solution (cGMP and [^3H]-cGMP) and allowed to progress for 20 minutes at room temperature. The reaction was terminated by adding 25 μA of YSi-SPA scintillation beads (GE Healthcare, cat. # RPNQ0150) in 18 mM zinc sulphate solution (stop reagent). After 1 h under shaking, the plate was centrifuged one minute at 170 g to allow beads to settle. Afterwards, radioactive counts were measured on a Perkin Elmer TopCount Scintillation plate reader.
# Sequence of human PDE10A (Q9Y233 other isoform, or with tags, fused parts or gaps): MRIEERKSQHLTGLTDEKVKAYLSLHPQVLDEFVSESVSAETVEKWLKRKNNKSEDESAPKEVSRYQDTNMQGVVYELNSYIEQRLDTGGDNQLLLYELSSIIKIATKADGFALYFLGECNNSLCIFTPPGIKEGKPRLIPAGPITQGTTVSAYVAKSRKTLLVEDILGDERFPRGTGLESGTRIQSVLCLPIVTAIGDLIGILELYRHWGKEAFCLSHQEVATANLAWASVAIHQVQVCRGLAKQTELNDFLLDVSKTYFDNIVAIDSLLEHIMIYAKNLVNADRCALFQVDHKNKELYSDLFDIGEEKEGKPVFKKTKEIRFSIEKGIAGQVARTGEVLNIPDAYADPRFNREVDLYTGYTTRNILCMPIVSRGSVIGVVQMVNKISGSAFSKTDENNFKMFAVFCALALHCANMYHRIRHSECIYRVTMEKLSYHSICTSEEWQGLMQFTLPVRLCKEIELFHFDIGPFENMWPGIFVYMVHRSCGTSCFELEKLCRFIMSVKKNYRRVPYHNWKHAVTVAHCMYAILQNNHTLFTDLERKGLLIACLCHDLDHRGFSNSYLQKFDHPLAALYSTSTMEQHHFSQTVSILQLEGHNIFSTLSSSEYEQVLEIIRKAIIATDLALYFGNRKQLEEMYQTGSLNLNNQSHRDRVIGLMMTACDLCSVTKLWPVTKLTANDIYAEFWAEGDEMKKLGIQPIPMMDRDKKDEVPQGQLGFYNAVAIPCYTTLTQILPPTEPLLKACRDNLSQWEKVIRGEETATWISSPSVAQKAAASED
row,Compound,IC50
1,"COCc1ncc(Nc2cncnc2)c(C(=O)Nc2cc(-c3ccccn3)nn2C)n1 [Example 13, 2-Methoxymethyl-5-(pyrimidin-5-ylamino)-pyrimidine-4-carboxylic acid (2-methyl-5-pyridin-2-yl-2H-pyrazol-3-yl)-amide]",256 nM
2,"Cc1ccc(Nc2cncnc2)c(C(=O)Nc2ccn(-c3ccccn3)n2)n1 [Example 4, 6-Methyl-3-(pyrimidin-5-ylamino)-pyridine-2-carboxylic acid (1-pyridin-2-yl-1H-pyrazol-3-yl)-amide]",368 nM
3,"O=C(Nc1cc(-c2ccccc2)nn1CCO)c1nc(C2CC2)ccc1Nc1cncnc1 [Example 9, 6-Cyclopropyl-3-(pyrimidin-5-ylamino)-pyridine-2-carboxylic acid [2-(2-hydroxy-ethyl)-5-phenyl-2H-pyrazol-3-yl]-amide]",122 nM
4,"Cn1nc(-c2ccccn2)cc1NC(=O)c1nc(C2CC2)ncc1Nc1cncnc1 [Example 54, 2-Cyclopropyl-5-(pyrimidin-5-ylamino)-pyrimidine-4-carboxylic acid (2-methyl-5-pyridin-2-yl-2H-pyrazol-3-yl)-amide]",87 nM
5,"CC(C)Cn1nc(-c2ccccn2)cc1NC(=O)c1nc(C2CC2)ccc1Nc1cncnc1 [Example 28, 6-Cyclopropyl-3-(pyrimidin-5-ylamino)-pyridine-2-carboxylic acid (2-isobutyl-5-pyridin-2-yl-2H-pyrazol-3-yl)-amide]",1 nM
6,"CCOC(=O)Cn1nc(-c2ccccn2)cc1NC(=O)c1nc(C2CC2)ccc1Nc1cncnc1 [Example 15, (5-{[6-Cyclopropyl-3-(pyrimidin-5-ylamino)-pyridine-2-carbonyl]-amino}-3-pyridin-2-yl-pyrazol-1-yl)-acetic acid ethyl ester]",4 nM
7,"O=C(Nc1cc(-c2ccccn2)nn1CC(F)(F)F)c1nc(C2CC2)ccc1Nc1cncnc1 [Example 22, 6-Cyclopropyl-3-(pyrimidin-5-ylamino)-pyridine-2-carboxylic acid [5-pyridin-2-yl-2-(2,2,2-trifluoro-ethyl)-2H-pyrazol-3-yl]-amide]",2 nM
8,"CN(C)CCn1nc(NC(=O)c2nc(C3CC3)ccc2Nc2cncnc2)cc1-c1ccccn1 [Example 42, 6-Cyclopropyl-3-(pyrimidin-5-ylamino)-pyridine-2-carboxylic acid [1-(2-dimethylamino-ethyl)-5-pyridin-2-yl-1H-pyrazol-3-yl]-amide]",24 nM
9,"Cn1nc(NC(=O)c2nc(C3CC3)ccc2Nc2cncnc2)cc1-c1ccccn1 [Example 63, 6-Cyclopropyl-3-(pyrimidin-5-ylamino)-pyridine-2-carboxylic acid (1-methyl-5-pyridin-2-yl-1H-pyrazol-3-yl)-amide]",327 nM
10,"O=C(Nc1cc(-c2ccccn2)nn1C1CCOCC1)c1nc(C2CC2)ccc1Nc1cncnc1 [Example 20, 6-Cyclopropyl-3-(pyrimidin-5-ylamino)-pyridine-2-carboxylic acid [5-pyridin-2-yl-2-(tetrahydro-pyran-4-yl)-2H-pyrazol-3-yl]-amide]",1 nM
11,"O=C(Nc1cnn(-c2ccccn2)c1)c1nc(C2CC2)ccc1Nc1cncnc1 [Example 65, 6-Cyclopropyl-3-(pyrimidin-5-ylamino)-pyridine-2-carboxylic acid (1-pyridin-2-yl-1H-pyrazol-4-yl)-amide]",55 nM
12,"O=C(Nc1cc(-c2ccc(Cl)cn2)nn1CCO)c1nc(C2CC2)ccc1Nc1cncnc1 [Example 26, 6-Cyclopropyl-3-(pyrimidin-5-ylamino)-pyridine-2-carboxylic acid [5-(5-chloro-pyridin-2-yl)-2-(2-hydroxy-ethyl)-2H-pyrazol-3-yl]-amide]",2 nM
13,"O=C(Nc1nnc(-c2ccccn2)o1)c1nc(C2CC2)ccc1Nc1cncnc1 [Example 64, 6-Cyclopropyl-3-(pyrimidin-5-ylamino)-pyridine-2-carboxylic acid (5-pyridin-2-yl-[1,3,4]oxadiazol-2-yl)-amide]",2040 nM
14,"COCc1ccc(Nc2cncnc2)c(C(=O)Nc2cc(-c3ccccn3)nn2C)n1 [Example 59, 6-Methoxymethyl-3-(pyrimidin-5-ylamino)-pyridine-2-carboxylic acid (2-methyl-5-pyridin-2-yl-2H-pyrazol-3-yl)-amide]",7 nM
15,"CCCn1nc(-c2ccccn2)cc1NC(=O)c1nc(C2CC2)ccc1Nc1cncnc1 [Example 23, 6-Cyclopropyl-3-(pyrimidin-5-ylamino)-pyridine-2-carboxylic acid (2-propyl-5-pyridin-2-yl-2H-pyrazol-3-yl)-amide]",2 nM
16,"Cn1nc(-c2ccc3ccccc3n2)cc1NC(=O)c1nc(C2CC2)ccc1Nc1cncnc1 [Example 40, 6-Cyclopropyl-3-(pyrimidin-5-ylamino)-pyridine-2-carboxylic acid (2-methyl-5-quinolin-2-yl-2H-pyrazol-3-yl)-amide]",< 1 nM
17,"CC(C)Cc1ncc(Nc2cncnc2)c(C(=O)Nc2cc(-c3ccccn3)nn2C)n1 [Example 61, 2-Isobutyl-5-(pyrimidin-5-ylamino)-pyrimidine-4-carboxylic acid (2-methyl-5-pyridin-2-yl-2H-pyrazol-3-yl)-amide]",28 nM
18,"O=C(Nc1cn(-c2ccccn2)cn1)c1nc(C2CC2)ccc1Nc1cncnc1 [Example 52, 6-Cyclopropyl-3-(pyrimidin-5-ylamino)-pyridine-2-carboxylic acid (1-pyridin-2-yl-1H-imidazol-4-yl)-amide]",33 nM
19,"O=C(Nc1nnc(-c2ccc(F)cc2)s1)c1nc(C2CC2)ccc1Nc1cncnc1 [Example 45, 6-Cyclopropyl-3-(pyrimidin-5-ylamino)-pyridine-2-carboxylic acid [5-(4-fluoro-phenyl)-[1,3,4]thiadiazol-2-yl]-amide]",6380 nM
20,"Cc1ccc(Nc2cncnc2)c(C(=O)Nc2ccn(-c3ccccc3)n2)n1 [Example 1, 6-Methyl-3-(pyrimidin-5-ylamino)-pyridine-2-carboxylic acid (1-phenyl-1H-pyrazol-3-yl)-amide]",90 nM
21,"Cc1cnc(Nc2cncnc2)c(C(=O)Nc2cc(-c3ccccn3)nn2C)n1 [Example 35, 6-Methyl-3-(pyrimidin-5-ylamino)-pyrazine-2-carboxylic acid (2-methyl-5-pyridin-2-yl-2H-pyrazol-3-yl)-amide]",21 nM
22,"O=C(Nc1cc(-c2ccc(Cl)cc2)no1)c1nc(C2CC2)ccc1Nc1cncnc1 [Example 56, 6-Cyclopropyl-3-(pyrimidin-5-ylamino)-pyridine-2-carboxylic acid [3-(4-chloro-phenyl)-isoxazol-5-yl]-amide]",1450 nM
23,"O=C(Nc1cc(-c2ccccc2)on1)c1nc(C2CC2)ccc1Nc1cncnc1 [Example 47, 6-Cyclopropyl-3-(pyrimidin-5-ylamino)-pyridine-2-carboxylic acid (5-phenyl-isoxazol-3-yl)-amide]",1450 nM
24,"O=C(Nc1cc(-c2cccc(Cl)n2)nn1CCO)c1nc(C2CC2)ccc1Nc1cncnc1 [Example 24, 6-Cyclopropyl-3-(pyrimidin-5-ylamino)-pyridine-2-carboxylic acid [5-(6-chloro-pyridin-2-yl)-2-(2-hydroxy-ethyl)-2H-pyrazol-3-yl]-amide]",1 nM
25,"Cn1nc(-c2ccccn2)cc1NC(=O)c1nc(C2CCCCC2)ncc1Nc1cncnc1 [Example 60, 2-Cyclohexyl-5-(pyrimidin-5-ylamino)-pyrimidine-4-carboxylic acid (2-methyl-5-pyridin-2-yl-2H-pyrazol-3-yl)-amide]",6 nM
26,"O=C(Nc1cc(-c2ccccn2)nn1Cc1ccccc1)c1nc(C2CC2)ccc1Nc1cncnc1 [Example 29, 6-Cyclopropyl-3-(pyrimidin-5-ylamino)-pyridine-2-carboxylic acid (2-benzyl-5-pyridin-2-yl-2H-pyrazol-3-yl)-amide]",2 nM
27,"CCc1ccc(Nc2cncnc2)c(C(=O)Nc2cc(-c3ccccn3)nn2C)n1 [Example 19, 6-Ethyl-3-(pyrimidin-5-ylamino)-pyridine-2-carboxylic acid (2-methyl-5-pyridin-2-yl-2H-pyrazol-3-yl)-amide]",2 nM
28,"O=C(Nc1cc(-c2ccccn2)nn1CCN1CCOCC1)c1nc(C2CC2)ccc1Nc1cncnc1 [Example 16, 6-Cyclopropyl-3-(pyrimidin-5-ylamino)-pyridine-2-carboxylic acid [2-(2-morpholin-4-yl-ethyl)-5-pyridin-2-yl-2H-pyrazol-3-yl]-amide]",2 nM
29,"CC(C)(C)n1nc(-c2ccccn2)cc1NC(=O)c1nc(C2CC2)ccc1Nc1cncnc1 [Example 18, 6-Cyclopropyl-3-(pyrimidin-5-ylamino)-pyridine-2-carboxylic acid (2-tert-butyl-5-pyridin-2-yl-2H-pyrazol-3-yl)-amide]",13 nM
30,"O=C(Nc1nnc(-c2ccccc2)s1)c1nc(C2CC2)ccc1Nc1cncnc1 [Example 48, 6-Cyclopropyl-3-(pyrimidin-5-ylamino)-pyridine-2-carboxylic acid (5-phenyl-[1,3,4]thiadiazol-2-yl)-amide]",435 nM
